Laboratory results from US7414031B2, “5-nitro-nucleoside compounds for treating viral infections” (priority 2004, dated 2008).

Key:
[1] = system: HCV replicon I389luc-ubi-neo/NS3-3′/ET in ET (Huh-lucubineo-ET) cell line; assay: Replicon Assay; format: cell-based; details: Hepatitis C virus, read-out: Replicon Assay
Experimental: A cell line, ET (Huh-lucubineo-ET) is used for screening of compounds of the present invention for HCV RNA dependent RNA polymerase. The ET cell line is stably transfected with RNA transcripts harboring a I389luc-ubi-neo/NS3-3′/ET; replicon with firefly luciferase-ubiquitin-neomycin phosphotransferase fusion protein and EMCV-IRES driven NS3-5B polyprotein containing the cell culture adaptive mutations (E1202G; T1280I; K1846T) (Krieger at al, 2001 and unpublished). The ET cells are grown in DMEM, supplemented with 10% fetal calf serum, 2 mM Glutamine, Penicillin (100 IU/mL)/Streptomycin (100 μg/mL), 1× nonessential amino acids, and 250 μg/mL G418 (“Geneticin”). They are all available through Life Technologies (Bethesda, Md.). The cells are plated at 0.5-1.0×10^4 cells/well in the 96 well plates and incubated for 24 hrs before adding nucleoside analogs. […] Luciferase activity will be measured 48-72 hours later by adding a lysis buffer and the substrate (Catalog number Glo-lysis buffer E2661 and Bright-Glo leuciferase system E2620 Promega, Madison, Wis.). […] Under the same condition, cytotoxicity of the compounds will be determined using cell proliferation reagent, WST-1 (Roche, Germany). […] IC50 and TC50 values were calculated by fitting % inhibition at each concentration to the following equation: % inhibition=100%/[(IC50/[I])^b+1] where b is Hill's coefficient.

[2] = biological target: T1, recombinant HCV-NS5b (Hepatitis C virus genotype 1b, UniProt Q9WMX2); assay: HCV-NS5b Enzyme Assay; format: biochemical
T1 construct: (His)6 (C); made in house; host or cells: XL-1 cells (E. coli)
Source text: The coding sequence of NS5b protein is cloned by PCR from pFKI389luc/NS3-3′/ET as described by Lohmann, V., et al. (1999) Science 285, 110-113 using the following primers: […] (SEQ. ID. NO. 1) […] (SEQ. ID. NO. 2)
The cloned fragment is missing the C terminus 21 amino acid residues. The cloned fragment is inserted into an IPTG-inducible expression plasmid that provides an epitope tag (His)6 at the carboxy terminus of the protein.
The recombinant enzyme is expressed in XL-1 cells and after induction of expression, the protein is purified using affinity chromatography on a nickel-NTA column. Storage condition is 10 mM Tris-HCl pH 7.5, 50 mM NaCl, 0.1 mM EDTA, 1 mM DTT, 20% glycerol at −20° C.
The polymerase activity is assayed by measuring incorporation of radiolabeled UTP into a RNA product using a biotinylated, heteropolymeric template, which includes a portion of the HCV genome. Typically, the assay mixture (50 μL) contains 10 mM Tris-HCl (pH 7.5), 5 mM MgCl2, 0.2 mM EDTA, 10 mM KCl, 1 unit/μL RNAsin, 1 mM DTT, 10 μM each of NTP, including [^3H]-UTP, and 10 ng/μL heteropolymeric template. Test compounds are initially dissolved in 100% DMSO and further diluted in aqueous buffer containing 5% DMSO. Typically, compounds are tested at concentrations between 1 nM and 100 μM. […] Incorporation of radioactivity is determined by scintillation counting.

[3] = patients treated at currently recommended doses; cited from earlier work
[4] = system: HCV; details: treatment of HCV with interferon; cited from earlier work

## C[C@@]1(O)[C@H](O)[C@@H](CO)O[C@H]1n1cc(C(=O)O)c2c(N)ncnc21 [Comparative Example A, 7-(2′-methyl-β-D-ribofuranosyl)-4-amino-5-carboxy-pyrrolo[2,3-d]pyrimidine, reference compound]
[1]
  IC50: > 50 µM

## C[C@@]1(O)[C@H](O)[C@@H](CO)O[C@H]1n1cc([N+](=O)[O-])c2c(N)ncnc21 [Compound 101, 7-(2′-C-methyl-β-D-ribofuranosyl)-4-amino-5-nitro-pyrrolo[2,3-d]pyrimidine]
[1]
  IC50: 0.06 µM

## C[C@@]1(O)[C@H](O)[C@@H](COP(=O)(O)OP(=O)(O)OP(=O)(O)O)O[C@H]1n1cc([N+](=O)[O-])c2c(N)ncnc21 [Compound 104, 7-(2′-C-methyl-5′-triphospho-β-D-ribofuranosyl)-4-amino-5-nitro-pyrrolo[2,3-d]pyrimidine]
[2]
  IC50: 2.6 µM

## NC(=O)c1ncn([C@@H]2O[C@H](CO)[C@@H](O)[C@H]2O)n1 [Ribavirin, 1-β-D-ribofuranosyl-1H-1,2,-4-triazole-3-carboxamide]
[3]
  patients with significant hemolysis: 10-20%

## interferon
[4]
  response rate (long term efficacy): about 25%
